Data taken from ChEMBL document CHEMBL3639064, “Piperazine compound capable of inhibiting prostaglandin D synthase” (2014).

biological target: Hematopoietic prostaglandin D synthase (Homo sapiens, UniProt O60760); assay: Inhibition Assay: The test was carried out according to the method of Urade, Y. et al. (J. Biol. Chem., 262, 3820-3825, (1987)). More specifically, the reaction mixture (49 uL) containing 100 mM Tris-HCl (pH 8.0), 1 mM reduced glutathione, 0.1 mg/mL gamma-globulin, and human H-PGDS (q.s.), and a compound (final concentration: 0.01-100 uM) was preincubated at 25 C. for 5 minutes. Note that a DMSO solution (final concentration: 1%) was added to the solvent control group. Subsequently, 1 uL of [14C] prostaglandin H2 (final concentration: 10 uM) was added to start the reaction. One minute after the start of the reaction, 250 uL of a reaction stopper solution (diethylether/methanol/1 M citric acid (30/4/1) at a temperature of -20 C. was added to stop the reaction. After the reaction was stopped, 50 uL of the upper layer portion (organic solvent phase) was applied to a TLC plate and developed at -20 C. for 45 minutes.
Sequence (O60760 whole entry): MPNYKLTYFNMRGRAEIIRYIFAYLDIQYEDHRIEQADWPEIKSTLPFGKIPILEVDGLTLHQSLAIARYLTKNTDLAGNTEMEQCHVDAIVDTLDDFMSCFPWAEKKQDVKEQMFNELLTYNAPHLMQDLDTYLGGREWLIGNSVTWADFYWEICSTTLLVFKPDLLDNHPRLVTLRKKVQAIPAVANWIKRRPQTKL

Row | Compound | IC50
1 | Cn1cccc1C(=O)N1CCN(C(=O)Nc2ccc(N3CCC(CCn4ccnn4)CC3)cc2)CC1 | 71 nM
2 | Cn1cccc1C(=O)N1CCN(C(=O)Nc2ccc(N3CCC(CN4CCOCC4)CC3)cc2)CC1 | 54 nM
3 | Cn1cccc1C(=O)N1CCN(C(=O)Nc2ccc(N3CCC(CCn4cncn4)C3)cc2)CC1 (stereo unspecified) | 67 nM
4 | Cn1cccc1C(=O)N1CCN(C(=O)Nc2ccc(N3CCC(CCN4CCOCC4)CC3)cc2)CC1 | 43 nM
5 | Cc1nc(C)n(CCC2CCN(c3ccc(NC(=O)N4CCN(C(=O)c5cccn5C)CC4)cc3)CC2)n1 | 85 nM
6 | CN1CCN(C(=O)C2CCN(c3ccc(NC(=O)N4CCN(C(=O)c5cccn5C)CC4)cc3)CC2)CC1 | 60 nM
7 | Cn1cccc1C(=O)N1CCN(C(=O)Nc2ccc(N3CCC(C(=O)NCCN4CCOCC4)CC3)cc2)CC1 | 59 nM
8 | Cn1cccc1C(=O)N1CCN(C(=O)Nc2ccc(N3CCC(C(=O)NCc4cccnc4)CC3)cc2)CC1 | 60 nM

Stronger by IC50, values ahead:

Row | IC50 | Compound
9 | 40 nM | Cn1cccc1C(=O)N1CCN(C(=O)Nc2ccc(N3CCC(CCn4cccn4)CC3)cc2)CC1
10 | 37 nM | Cn1cccc1C(=O)N1CCN(C(=O)Nc2ccc(N3CCC(CCCn4ccnn4)CC3)cc2)CC1
11 | 32 nM | Cn1cccc1C(=O)N1CCN(C(=O)Nc2ccc(N3CCC(C(=O)N4CCCCC4)CC3)cc2)CC1
